Biological target: Mushroom Tyrosinase (Agaricus bisporus, UniProt C7FF04)
Experiment: Comparative tyrosinase inhibitory activity (dopachrome optical density at 475 nm)
Format: biochemical
Procedure: All measurements were performed at room temperature (24 C) with a Beckman Coulter DU-640 spectrophotometer at a scan speed of 1200 nm/min with a spectral range from 300 to 700 nm.
Buffer solution • KH2PO4 99.8% & KOH 85+% (pH 7.4, 100 mM) • Mol. Wt. 136.09, VWR and Sigma-Aldrich • KH2PO4 (1362 mg) dissolved in distilled water (100 ml) and pH adjusted to 7.4 with a 2 M KOH solution • 2. Mushroom Tyrosinase solution (240 units per 1 ml) • 2440 units/mg, Sigma-Aldrich • Tyrosinase (2.5 mg) dissolved in 25 ml of distilled water • 3. L-DOPA solution (6.3 mM) • Mol. Wt. 197, Sigma-Aldrich • 33.1 mg are dissolved in distilled water (25 ml) • 4. L-Tyrosine solution (1.3 mM) • Mol. Wt. 181.2, Sigma-Aldrich • 23.5 mg are dissolved in distilled water (100 ml) • 5. Hydrogen peroxide solution (5 mM) • Sigma-Aldrich • 1/100 of 0.9/25 vol. dilution of a 50% wt. solution b) Skin Lightening Ingredients • 5. Emblica™ antioxidant (5 mM)—Lot # CA0106007 • Average Mol. Wt. 729, EMD Chemicals / Merck KGaA • Emblica (18.2 mg) dissolved in distilled water (5 ml) • 6. […]
The stock solutions were added in an orderly manner with quantities according to Table 1 as to obtain a final total volume of 3.0 ml for each preparation. […] After 15 min of reaction time, the spectra were recorded between 300 and 700 nm and the optical density at 475 nm (Dopachrome) measured.

Chain of Mushroom Tyrosinase (C7FF04 1-392): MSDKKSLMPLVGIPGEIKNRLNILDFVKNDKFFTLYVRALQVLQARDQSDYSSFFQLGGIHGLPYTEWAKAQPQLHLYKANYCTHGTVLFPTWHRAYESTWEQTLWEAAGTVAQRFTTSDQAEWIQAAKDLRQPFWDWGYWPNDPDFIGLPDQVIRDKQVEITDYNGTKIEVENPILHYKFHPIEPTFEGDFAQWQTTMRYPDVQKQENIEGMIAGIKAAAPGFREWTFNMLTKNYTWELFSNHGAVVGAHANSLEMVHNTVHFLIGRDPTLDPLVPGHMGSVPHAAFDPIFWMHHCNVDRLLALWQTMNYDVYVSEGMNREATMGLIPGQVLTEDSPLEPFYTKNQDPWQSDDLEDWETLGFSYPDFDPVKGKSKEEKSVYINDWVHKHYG
Chain of Mushroom Tyrosinase (G1K3P4 entry or part of it, further chain): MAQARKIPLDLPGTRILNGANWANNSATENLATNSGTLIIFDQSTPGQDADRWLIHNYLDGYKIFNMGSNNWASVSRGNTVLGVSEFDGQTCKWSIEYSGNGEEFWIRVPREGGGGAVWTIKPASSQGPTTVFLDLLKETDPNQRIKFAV

Oc1ccc(O)cc1 [Hydroquinone]
inhibitory activity against tyrosinase (in words) (DOPA as substrate): less effective
inhibitory activity against tyrosinase (in words) (tyrosine used as a substrate): excellent inhibitory activity
